Reference: patent publication US20240269106A1, “SMALL MOLECULE MODULATOR TARGETING A RARE HISTONE MODIFICATION REGULATING ADIPOGENESIS AND PHARMACEUTICAL FORMULATION THEREOF” (COUNCIL OF SCIENTIFIC AND INDUSTRIAL RESEARCH AN INDIAN …, priority 2021, published 2024)
Like-named read-outs stand apart in the source and are kept apart here.

Assays:
[1] = Pharmacokinetic study, oral, serum LC-MS; format: in vivo, SD rats; conditions: for Cl/F_obs / Vz/F_obs / AUC(0-t) / Cmax / Tmax / AUC(0-inf) / MRT inf / half-life: free drug coarse suspension; for AUC(0-t) / Cmax / Tmax / AUC(0-inf) / MRT inf / half-life: Sprague-Dawley (SD); for AUC(0-inf): read-out: AUC 0-inf_obs; for MRT inf: read-out: MRT 0-inf_obs; for half-life: read-out: t½ (converted)
Experimental: Healthy male SD rats (weighing 200-230 gm) were used for the pharmacokinetic study. The animals were fasted overnight and had free access to water. The animals were divided into six groups with each group having 6 male SD rats (6×6=36) and were orally administered with optimized compound X nano lipid carrier formulation and coarse suspension (free drug) of compound X. All the formulations were administered orally with the help of rat oral feeding tube. The group comprises as follows, GROUP 1: Only vehicle sodium suspension as control/blank. GROUP 2: Compound X optimized NLC formulation by oral delivery (25 mg/kg). GROUP 3: Compound X free drug as coarse suspension by oral delivery (25 mg/kg). GROUP 4: Compound X free drug as coarse suspension by oral delivery (50 mg/kg). GROUP 5: Compound X free drug as coarse suspension by oral delivery (100 mg/kg). GROUP 6: Compound X free drug as coarse suspension by oral delivery (200 mg/kg). Blood samples were withdrawn from retro-orbital venous plexus puncture at time intervals of 0.25, 0.5, 1, 2, 4, 8, 12, 24 and 48 hours. The blood samples were allowed to clot and centrifuged for 15 min at 4500 rpm. The serum was separated and transferred into clean micro centrifuge tubes and stored at −80° C. until further analysis. 50 μl of rat serum was taken from samples and added to extraction solvent 2.5% IPA in n-Hexane (2 mL) containing internal standard (SCTK-14 of 2.5 ng) than Vortexed for 10 minutes, the samples were centrifuged at 4500 rpm and 4° C. for 15 minutes. After centrifugation, samples were stored at −80° C. for 30 minutes, and the supernatant organic layer was transferred and evaporated to dryness in a thermostatically controlled water bath maintained at 30° C. under steam of nitrogen for 30 minutes. After drying the residue was reconstituted by adding 200 microlitres of acetonitrile into pre-labelled vials and vortexed for 20 seconds, and then the samples were injected into the LC-MS system for analysis.
The pharmacokinetic parameters of compound X were calculated by non-compartmental estimations using PK solver 2.0 software.

[2] = test system: histone butyrylation and acetylation in liver and adipose tissue; assay: Histone modifications in liver and adipose tissue of high fat diet mice; format: in vivo
Experimental: Collected liver tissue samples were stored in 4% paraformaldehyde for 24 hours after which they were cryoprotected in 30% sucrose solution for two weeks. Cryosections were performed at 7 μm sections using Cryostat Leica CM1850 UV. For staining, the tissue sections were washed with PBS followed by antigen retrieval with 0.01 M citrate buffer (pH 6). The tissues were then permeabilised with 0.3% Triton X-100/PBS (PBST) and blocked with 2% serum followed by incubation with primary antibodies overnight at 4° C. The next day, secondary antibody incubation was carried out for one hour at room temperature followed by staining of the nuclei with Hoechst 33342 and mounting with 70% glycerol. Images were acquired by confocal microscopy. For quantitation, intensity of each modification specific staining was normalized with respect to the Hoechst staining intensity.
It was observed that H4K5 butyrylation in liver increased upon high fat diet consumption but was inhibited in presence of compound of Formula I (FIG. 10A). […] Acid extraction of histones was performed from the epididymal fat pads of mice using the same protocol as mentioned in example 7. It was observed that H4K5 butyrylation was reduced in the adipocytes of high fat diet fed mice treated with compound of Formula I compared to mice fed with high fat diet only (FIG. 10B).

[3] = test system: genetically obese db/db mice; assay: Body weight gain of genetically obese db/db mice; format: in vivo; conditions: 50 mg/kg oral gavage
Experimental: Male db+/− and genetically obese db/db mice (8 weeks old) were obtained and acclimatized for 1 week prior to experiments. Mice were maintained on a 12-hour light/dark cycle at 22+/−3° C. and a relative humidity of 55% and given ad libitum access to food and water.
The age-matched db+/− and db/db mice were maintained on a standard laboratory pelleted diet and water. db/db mice were oral gavaged (50 mg/kg) with LTK14A in 0.5% carboxymethyl cellulose, equal volume of the vehicle was orally gavaged to control db/db mice for a total period of 30 days. db+/− animals were kept as untreated normal control group. The body weights and feed intake was recorded every week throughout the experimental period. The lean and fat mass of the mice were determined using Echo MRI in live mice on day 15th and day 30th.
Trend of weight gaining after 30 days of genetically obese leptin receptor homozygous mutant mice with compound of Formula I was plotted against that of mutant mice treated with vehicle control and also heterozygous mutant mice (FIG. 10)(panel i). Average weight gain, average fat mass and average lean mass of the mice from the three groups are represented in bar p graphs (panel ii, iii and iv respectively); n=4 in each group:one-way ANOVA with Dunnett's multiple comparison; * P<0.05, ** P<0.01, *** P<0.001, ns: not significant.

[4] = male, rat, serum, 25 mg/kg oral
[5] = male, rat, serum, 50 mg/kg oral
[6] = male, rat, serum, 100 mg/kg oral
[7] = male, rat, serum, 200 mg/kg oral

With `COc1ccc(C(=O)C2=C3OC(C)(C)[C@@H](CC=C(C)C)C[C@@]34C[C@@H](CC=C(C)C)C(C)(C)[C@@](CC=C(C)C)(C2=O)C4=O)cc1OC` [Compound X] the “difference in AUC between doses” value ([1]; free compound X at 25, 50, 100 and 200 mg/kg, except at 200 mg/kg) was “no appreciable difference in AUC”, the Cl/F_obs ([1]; 25 mg/kg oral) was 3.338 ± 0.33 mg)/(ng/ml)/h and the Vz/F_obs ([1]; 25 mg/kg oral) was 71.906 ± 29.05 (mg)/(ng/ml). The Cl/F_obs ([1]; 50 mg/kg oral) was 8.071 ± 2.12 mg)/(ng/ml)/h, the Vz/F_obs ([1]; 50 mg/kg oral) was 193.686 ± 112.43 (mg)/(ng/ml) and the Cl/F_obs ([1]; 100 mg/kg oral) was 18.233 ± 4.3 mg)/(ng/ml)/h. For the same compound, the Vz/F_obs ([1]; 100 mg/kg oral) was 346.653 ± 2.6193 (mg)/(ng/ml), the Cl/F_obs ([1]; 200 mg/kg oral) was 10.882 ± 4.58 mg)/(ng/ml)/h and the Vz/F_obs ([1]; 200 mg/kg oral) was 209.737 ± 91.22 (mg)/(ng/ml). It also gave an AUC ([1]; male, SD, rat, serum, oral, free compound X, 200 mg/kg dose) of ~20 ng·h/mL, an AUC(0-t) [1, 4] of 6.56 ± 1.57 ng·h/mL and a Cmax [1, 4] of 0.853 ± 0.09 ng/mL. It also gave a Tmax [1, 4] of 4.67 ± 3.05 h, an AUC(0-inf) [1, 4] of 7.54 ± 0.8 ng·h/mL and an MRT inf [1, 4] of 22.2 ± 9.59 h. For the same compound, the half-life [1, 4] was 14.7 ± 5.07 h, the AUC(0-t) [1, 5] was 4.74 ± 0.1 ng·h/mL and the Cmax [1, 5] was 2.49 ± 0.14 ng/mL. It also gave a Tmax [1, 5] of 0.333 ± 0.14 h, an AUC(0-inf) [1, 5] of 6.49 ± 1.71 ng·h/mL and an MRT inf [1, 5] of 28.4 ± 22.8 h. It also gave a half-life [1, 5] of 18.6 ± 12.2 h, an AUC(0-t) [1, 6] of 5.29 ± 0.99 ng·h/mL and a Cmax [1, 6] of 0.343 ± 0.15 ng/mL. The Tmax [1, 6] was 0.667 ± 0.28 h, the AUC(0-inf) [1, 6] was 5.74 ± 1.6 ng·h/mL and the MRT inf [1, 6] was 21 ± 3.98 h. For the same compound, the half-life [1, 6] was 13.8 ± 3.74 h, the AUC(0-t) [1, 7] was 19.1 ± 7.84 ng·h/mL and the Cmax [1, 7] was 2.83 ± 2.16 ng/mL. It also gave a Tmax [1, 7] of 2.92 ± 4.4 h, an AUC(0-inf) [1, 7] of 20.6 ± 7.98 ng·h/mL and an MRT inf [1, 7] of 15.7 ± 2.87 h. The half-life [1, 7] was 13.4 ± 4.31 h, the “H4K5 butyrylation in adipocytes” value ([2]; epididymal fat pads, immunoblot) was “reduced” and the “H4K5 butyrylation in liver” value ([2]; immunohistochemistry) was “inhibited”. For the same compound, the “H4K12 and H3K14 acetylation in liver” value ([2]; immunohistochemistry) was “not affected”, the “effect on fat mass compared to lean mass (Echo MRI)” value [3] was “greater effect on fat mass” and the body weight ([3]; 30 days) was “reduction in body weight”.
